Laboratory results from patent US20220127297A1, “Novel Antibacterial 3"-Derivatives Of 4,6-Disubstituted 2,5-Dideoxystreptamine Aminoglycoside Antibiotics” (AGILeBiotics B.V., priority 2018, published 2022).
Converted amounts (≈) assume the structure as drawn.

Each compound was assayed on E. coli (APH(3′)IIIa) (assay: MIC 50, broth micro-dilution, E. coli expressing APH(3′)IIIa). Conditions: ATCC25922 harboring plasmid encoding APH(3′)IIIa.
Assay type: cell-based, Escherichia coli
Description: Plasmid transformation. Approximately 500 ng of the pET-9b(+) (Cat. No. 69432-3, Merck), pAT21-1 (provided by Prof. Dr. Patrice Courvalin, M.D., Pasteur Institute, France; prepared according to Trieu-Cuot et. al, Mol. Gen. Genet. 198(2), 348 (1985)), pBluescript::AAC(6′)-Ie/APH(2″)-Ia (provided by Prof. Dr. Sergei Vakulenko, M.D., University of Notre Dame, Ind., USA; prepared according to S. B. Vakulenko et. al., J. Biol. Chem. 287 (52), 43262 (2012)), pBlue_lpp_aacC3_rrnC and pSET152 (Cat. No. PVT3395, Life Science Market; prepared according to Bierman et al., Gene 116 (1), 43 (1992)) plasmids, encoding APH(3′)-Ia (SEQ ID NO:2), APH(3′)-IIIa (SEQ ID NO:3), AAC(6′)Ie-APH(2″)-Ia (SEQ ID NO:4), AAC(3)-III (SEQ ID NO:1), and AAC(3)-IV (SEQ ID NO:5) respectively, were individually incubated in a vial of competent cells for 15 min on ice. The cells were subsequently heated to 42° C. for 90 s, and cooled on ice for 1 min. After addition of 900 μL LB, the cells were incubated for 1 h at 37° C. and 200 rpm. Cells were plated on LB-agar supplemented with 50 μg/mL KanaA and incubated for 18 h at 37° C. The next day, a single colony was inoculated in 5 mL LB supplemented with 50 μg/mL and grown for 18 h at 37° C. and 200 rpm. A 200 μL sample of each culture was diluted with 200 μL of 40% v/v glycerol in water, and stored at −80° C. The plasmid was purified from the remaining culture using the Plasmid Miniprep kit. Plasmid DNA was investigated by Eurofins Genomics (Germany) to confirm the identity of the aminoglycoside resistance genes.
3.1 Against E. coli Strains
Tested reference compounds. Amikacin sulfate (Cat. No. 01693, Chem-Impex), Gentamicin sulfate (Cat. No. G4918, Sigma Aldrich).
Microbial strains. E. coli ATCC 25922, E. coli ATCC 25922/pET-9b(+), E. coli ATCC 25922/pAT21-1, E. coli ATCC 25922/pBluescript::AAC(6′)-Ie/APH(2″)-Ia, E. coli ATCC 25922/pBlue_lpp_aacC3_rrnC, E. coli ATCC 25922/pSET152.
Culture media and equipment. BBL™ Mueller Hinton Broth 2 (Lot. BCBW1143, Cat. No. 70192, Sigma); Kanamycin A (Cat. No. A1493, AppliChem); 96-well deep well plate, 1 mL (Cat. No. 0030506.200, Eppendorf); Plate lids (Cat. No. 0030131.525, Eppendorf); 96-well plate, F-bottom (Cat. No. 781602, Brand; Incubator, Infors Multitron Pro); Laminar flow (Heraeus KS12); UV/VIS meter (Eppendorf BioPhotometer Plus); Platereader (Tecan Sunrise).
Compound preparation. Compounds were prepared in MH2 media at a concentration of 5 mM and stored at 4° C. For testing, solutions of 128 μM were prepared in MH2. Out of these working solutions, 400 μL was transferred to wells in the first column of 96-well deep well plates. Each compound was transferred in triplicate. Plates were previously filled with 200 μL of MH2 media in all wells except for the wells in the first column. After compound and antibiotic addition, the compounds were serial two-fold diluted by transferring 200 μL from the first to the second column, then from the second to the third column and so on. Finally, 200 μL was removed from the last column.
Inoculum preparation. Microorganisms used were all revived from 20% glycerol (40% v/v glycerol in water was diluted with MH2) storage at −80° C. by inoculating them in 5 mL MH2. inoculums of E. coli containing a plasmid were selected for by adding 50 μg/mL KanaA. The Inoculums were grown to an optical density (measured by UV/Vis spectroscopy) of 0.6-0.8 at 600 nm. Out of these suspensions, actual inoculums were prepared by diluting them to an optical density (OD) of 0.1 in MH2 media. From these inoculums, 200 μL was transferred to each well, resulting in a final compound concentration range of 64 μM-31.3 nM. All plates were incubated at 900 rpm and 70% rH for 18 h at 37° C.
MIC determination. After 18 h of growth, 200 μL was transferred to a 96-well F-bottom plate. The optical density was determined by a plate reader at 600 nm, with 10 s shaking before reading. Triplicate measurements were averaged, and a growth curve was plotted in Microsoft Excel. […]

| SMILES | MIC50 |
| --- | --- |
| NCCC(O)C(=O)NC1CC(N)C(OC2OC(CN)C(O)C(O)C2N)C(O)C1OC1OC(CO)C(O)C(N)C1O (stereo not drawn) [ABX4001, KanaB-AHB] | 8 to 16 µM |
| NCC[C@H](O)C(=O)N[C@@H]1CC(N)[C@@H](O[C@H]2OC(CN)[C@@H](O)CC2N)[C@H](F)C1OC1O[C@H](CO)[C@@H](O)C(N)[C@H]1O (stereo partly drawn) [ABX5024, Tobra-AHB-F] | 1 µM (≈ 0.571 µg/mL) |
| N=C(N)NC1[C@@H](O)C(OC2[C@@H](O)[C@H](O[C@H]3OC(CN)[C@@H](O)[C@H](O)C3N)C(N)C[C@H]2NC(=O)[C@@H](O)CCN)O[C@H](CO)[C@H]1O (stereo partly drawn) [ABX4009, KanaB-AHB-Gua] | 64 µM (≈ 40.1 µg/mL) |
| NCCC(O)C(=O)NC1CC(N)C(OC2OC(CN)C(O)C(O)C2O)C(F)C1OC1OC(CO)C(O)C(N)C1O (stereo not drawn) [ABX3005, 3′Epi-KanaA-AHB-F] | 4 to 8 µM |
| N=C(N)NC1[C@@H](O)C(OC2[C@@H](F)[C@H](O[C@H]3OC(CN)[C@@H](O)[C@H](O)C3N)C(N)C[C@H]2NC(=O)[C@@H](O)CCN)O[C@H](CO)[C@H]1O (stereo partly drawn) [ABX4004, 3′epi-KanaB-AHB-F-Gua] | 1 to 2 µM |
| N=C(N)NC1[C@@H](O)C(OC2[C@@H](O)[C@H](O[C@H]3OC(CN)[C@@H](O)CC3N)C(N)C[C@H]2NC(=O)[C@@H](O)CCN)O[C@H](CO)[C@H]1O (stereo partly drawn) [ABX5005, Tobra-AHB-Gua] | 2 to 4 µM |
| NCC[C@H](O)C(=O)N[C@@H]1CC(N)[C@@H](O[C@H]2OC(CN)[C@@H](O)[C@@H](O)C2N)[C@H](O)C1OC1O[C@H](CO)[C@@H](O)C(N)[C@H]1O (stereo partly drawn) [ABX4002, 3′Epi-KanaB-AHB] | 8 µM (≈ 4.68 µg/mL) |
| NCC[C@H](O)C(=O)N[C@@H]1CC(N)[C@@H](O[C@H]2OC(CN)[C@@H](O)CC2N)[C@H](O)C1OC1O[C@H](CO)[C@@H](O)C(N)[C@H]1O (stereo partly drawn) [ABX5004, Tobra-AHB] | 4 to 8 µM |
| NCC[C@H](O)C(=O)N[C@@H]1CC(N)[C@@H](O[C@H]2OC(CN)[C@@H](O)[C@@H](O)C2N)[C@H](F)C1OC1O[C@H](CO)[C@@H](O)C(N)[C@H]1O (stereo partly drawn) [ABX4003, 3′Epi-KanaB-AHB-F] | 8 µM (≈ 4.69 µg/mL) |
| N=C(N)N[C@@H]1[C@@H](O)[C@@H](O[C@@H]2[C@@H](O)[C@H](O[C@H]3O[C@H](CN)[C@@H](O)[C@@H](O)[C@H]3N)[C@@H](N)C[C@H]2NC(=O)[C@@H](O)CCN)O[C@H](CO)[C@H]1O [ABX4005, 3′Epi-KanaB-AHB-Gua] | 8 to 16 µM |
| N=C(N)NC1[C@@H](O)C(OC2[C@@H](F)[C@H](O[C@H]3OC(CN)[C@@H](O)[C@H](O)C3N)C(N)C[C@H]2NC(=O)[C@@H](O)CCN)O[C@H](CO)[C@H]1O (stereo partly drawn) [ABX4006, KanaB-AHB-F-Gua] | 4 to 8 µM |
| NCCC(O)C(=O)NC1CC(N)C(OC2OC(CN)C(O)C(O)C2N)C(F)C1OC1OC(CO)C(O)C(N)C1O (stereo not drawn) [ABX4007, KanaB-AHB-F] | 16 µM (≈ 9.39 µg/mL) |

Same assay, conditions: Escherichia coli, ATCC25922, ATCC25922 harboring plasmid encoding APH(3′)IIIa

| SMILES | MIC50 |
| --- | --- |
| N=C(NC[C@@H]1CCNC1)NC1[C@@H](O)C(OC2[C@@H](F)[C@H](O[C@H]3OC(CN)[C@@H](O)CC3N)C(N)C[C@H]2NC(=O)[C@@H](O)CCN)O[C@H](CO)[C@H]1O (stereo partly drawn) [ABX5039, Tobra-AHB-F-Gua (R) pyrrolidine-3-ylmethyl] | 0.25 µM (≈ 0.174 µg/mL) |
| N=C(NC[C@H]1CNCCO1)NC1[C@@H](O)C(OC2[C@@H](F)[C@H](O[C@H]3OC(CN)[C@@H](O)CC3N)C(N)C[C@H]2NC(=O)[C@@H](O)CCN)O[C@H](CO)[C@H]1O (stereo partly drawn) [ABX5043, Tobra-AHB-F-Gua (R) morpholin-2-yl methyl] | 0.25 µM (≈ 0.178 µg/mL) |
| N=C(NCCN)NC1C(O)[C@@H](CO)OC(OC2C(F)[C@H](O[C@H]3OC(CN)[C@@H](O)CC3N)C(N)C[C@H]2NC(=O)[C@@H](O)CCN)[C@@H]1O (stereo partly drawn) [ABX5020, Tobra-AHB-F-Gua-2-amino-ethyl] | 0.5 µM (≈ 0.328 µg/mL) |
| N=C(N)NC1[C@@H](O)C(OC2[C@@H](F)[C@H](O[C@H]3OC(CN)[C@@H](O)[C@H](O)C3O)C(N)C[C@H]2NC(=O)[C@@H](O)CCN)O[C@H](CO)[C@H]1O (stereo partly drawn) [ABX3003, 3′epi-KanaA-AHB-F-Gua] | 2 µM (≈ 1.26 µg/mL) |
| N=C(NCc1cnc[nH]1)NC1[C@@H](O)C(OC2[C@@H](F)[C@H](O[C@H]3OC(CN)[C@@H](O)CC3N)C(N)C[C@H]2NC(=O)[C@@H](O)CCN)O[C@H](CO)[C@H]1O (stereo partly drawn) [ABX5050, Tobra-AHB-F-Gua imidazol-5-yl methyl] | 1 to 2 µM (≈ 0.693 to 1.39 µg/mL) |
| N=C(NCC1CCCO1)NC1[C@@H](O)C(OC2[C@@H](F)[C@H](O[C@H]3OC(CN)[C@@H](O)CC3N)C(N)C[C@H]2NC(=O)[C@@H](O)CCN)O[C@H](CO)[C@H]1O (stereo partly drawn) [ABX5046, Tobra-AHB-F-Gua tetrahydrofuran-2-yl methyl] | 0.5 µM (≈ 0.348 µg/mL) |
| N=C(NCCCO)NC1[C@@H](O)C(OC2[C@@H](F)[C@H](O[C@H]3OC(CN)[C@@H](O)CC3N)C(N)C[C@H]2NC(=O)[C@@H](O)CCN)O[C@H](CO)[C@H]1O (stereo partly drawn) [ABX5041, Tobra-AHB-F-Gua 3-hydroxy-propyl] | 0.5 µM (≈ 0.335 µg/mL) |
| N=C(NCC1CC1)NC1[C@@H](O)C(OC2[C@@H](F)[C@H](O[C@H]3OC(CN)[C@@H](O)CC3N)C(N)C[C@H]2NC(=O)[C@@H](O)CCN)O[C@H](CO)[C@H]1O (stereo partly drawn) [ABX5027, Tobra-AHB-F-Gua cyclopropylmethyl] | 0.25 to 0.5 µM (≈ 0.167 to 0.333 µg/mL) |
| N=C(NCCCN)NC1[C@@H](O)C(OC2[C@@H](F)[C@H](O[C@H]3OC(CN)[C@@H](O)CC3N)C(N)C[C@H]2NC(=O)[C@@H](O)CCN)O[C@H](CO)[C@H]1O (stereo partly drawn) [ABX5030, Tobra-AHB-F-Gua-3-amino-propyl] | 0.25 µM (≈ 0.167 µg/mL) |
| C[C@@H](N)CCNC(=N)NC1[C@@H](O)C(OC2[C@@H](F)[C@H](O[C@H]3OC(CN)[C@@H](O)CC3N)C(N)C[C@H]2NC(=O)[C@@H](O)CCN)O[C@H](CO)[C@H]1O (stereo partly drawn) [ABX5047, Tobra-AHB-F-Gua (R) 3-amino-butyl] | 0.25 µM (≈ 0.171 µg/mL) |
| CNCCNC(=N)NC1[C@@H](O)C(OC2[C@@H](F)[C@H](O[C@H]3OC(CN)[C@@H](O)CC3N)C(N)C[C@H]2NC(=O)[C@@H](O)CCN)O[C@H](CO)[C@H]1O (stereo partly drawn) [ABX5038, Tobra-AHB-F-Gua 2-(methylamino)ethyl] | 0.25 µM (≈ 0.167 µg/mL) |
| N=C(NC[C@@H]1CCCN1)NC1[C@@H](O)C(OC2[C@@H](F)[C@H](O[C@H]3OC(CN)[C@@H](O)CC3N)C(N)C[C@H]2NC(=O)[C@@H](O)CCN)O[C@H](CO)[C@H]1O (stereo partly drawn) [ABX5026, Tobra-AHB-F-Gua (S) pyrrolidine-2-yl-methyl] | 0.25 µM (≈ 0.174 µg/mL) |
| N=C(N)NC1[C@@H](O)C(OC2[C@@H](F)[C@H](O[C@H]3OC(CNCCO)[C@@H](O)CC3N)C(N)C[C@H]2NC(=O)[C@@H](O)CCN)O[C@H](CO)[C@H]1O (stereo partly drawn) [ABX5045, 6N-2-hydroxy-ethyl-Tobra-AHB-F-Gua] | 1 µM (≈ 0.657 µg/mL) |
| N=C(NCCO)NC1[C@@H](O)C(OC2[C@@H](F)[C@H](O[C@H]3OC(CN)[C@@H](O)CC3N)C(N)C[C@H]2NC(=O)[C@@H](O)CCN)O[C@H](CO)[C@H]1O (stereo partly drawn) [ABX5029, Tobra-AHB-F-Gua 2-hydroxy-ethyl] | 0.5 µM (≈ 0.328 µg/mL) |
| N=C(NC[C@H]1CCNC1)NC1[C@@H](O)C(OC2[C@@H](F)[C@H](O[C@H]3OC(CN)[C@@H](O)CC3N)C(N)C[C@H]2NC(=O)[C@@H](O)CCN)O[C@H](CO)[C@H]1O (stereo partly drawn) [ABX5042, Tobra-AHB-F-Gua (S) pyrrolidine-3-ylmethyl] | 0.25 µM (≈ 0.174 µg/mL) |
